In patent US8057829B2, “Methods for repelling insects using sesquiterpene hydrocarbons and their derivatives” (Sterling International Inc., priority 2008, dated 2011):

Assays:
[1] = test system: female antennae of sand fly Phlebotomus papatasi and mosquitoes Aedes aegypti, Anopheles gambiae, Anopheles stephensi; assay: GC-EAD responses of sand fly and three mosquitoes to synthetic mixtures; conditions: about 100 ng of each compound, on one or more of the sand fly or the mosquitoes, FIGS. 9 and 10
Summary of the method: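 Female antennae recorded by GC-EAD (split with FID) against synthetic mixtures with about 100 ng of each compound, 1-octen-3-ol as positive control; polar Innowax column, 50° C 2 min then 10° C/min to 240° C. Effluent in humidified air at 0.5 liter/min over severed-head preparation with Ringer-filled electrodes.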

[2] = test system: Ae. aegypti and An. stephensi; assay: K&D module bioassay, statements pooled for both mosquito species; format: in vivo, Aedes aegypti; Anopheles stephensi; conditions: DEET at 10 μg/cm^2, oxide and ketone at similar or lower dosages as DEET, oils at about 10 mg/d release
Protocol: (§1) The bioassays were conducted with a six-cell in vitro K&D module system, as disclosed in Klun and Debboun, J. Med. Entomol. 37:177-181 (2000), loaded with an “artificial blood” (CPDA+ATP) solution.
Clove essential oil, patchouli oil, and EAD-active potential repellents, β-caryophyllene, isocaryophyllene, (+)-longifolene, and their 1:1:1 mixture, plus α-guaiene, caryophyllene oxide, and a β-caryophyllene ketone, were tested using the six-cell in vitro K&D module system (Klun and Debboun, J. Med. Entomol. 37:177-181 (2000)) loaded with an “artificial blood” (CPDA+ATP) solution on both Ae. aegypti and An. stephensi in a dose-response fashion. The K&D in vitro assay system has three components: (1) a Plexiglas™ 29.7 cm.×7.1 cm K&D module composed of six adjacent cells, each designed to hold mosquitoes and each having a rectangular 3×4 cm floor hole that is opened and closed by a sliding door; (2) a Plexiglas™ six-well 29.7 cm×7.1 cm water water-bath warmed (38° C.) reservoir with six 3×4 cm wells designed to match the sliding-door openings of the K&D module base and to contain 6 mL warmed “artificial blood” wells covered with a collagen membrane; and (3) a 29.7 cm×7.1 cm'0.4 cm Teflon® separator having six rectangular openings like the K&D module. The K&D module was connected to a constant temperature water circulator at 38° C. The cells were covered with an Edicol collagen membrane strip. Nylon organdy strips with ink cell patterns were numbered and randomly treated with five dilutions of the tested chemical in ethanol (ethanol alone as blank control), plus DEET (ca. 10 μg/cm^2) as a positive control. This treated nylon organdy strip was placed on top of the collagen membrane. The upper section of the K & D module with the six cells each containing 5 mosquitoes (5-10 d old, starved for 24 hr before testing) was placed on top of the nylon strip. […] The experiments were allowed to run for 3 minutes, and the number of mosquitoes feeding (biting) in each cell was recorded. […]

Aedes aegypti [3] = assay: K&D module behavioral bioassay (topical repellency, biting); format: in vivo
Protocol: as §1
(§2) Clove essential oil, patchouli oil, and EAD-active potential repellents, β-caryophyllene, isocaryophyllene, (+)-longifolene, and their 1:1:1 mixture, plus α-guaiene, caryophyllene oxide, and a β-caryophyllene ketone, were tested using the six-cell in vitro K&D module system (Klun and Debboun, J. Med. Entomol. 37:177-181 (2000)) loaded with an “artificial blood” (CPDA+ATP) solution on both Ae. aegypti and An. stephensi in a dose-response fashion. The K&D in vitro assay system has three components: (1) a Plexiglas™ 29.7 cm.×7.1 cm K&D module composed of six adjacent cells, each designed to hold mosquitoes and each having a rectangular 3×4 cm floor hole that is opened and closed by a sliding door; (2) a Plexiglas™ six-well 29.7 cm×7.1 cm water water-bath warmed (38° C.) reservoir with six 3×4 cm wells designed to match the sliding-door openings of the K&D module base and to contain 6 mL warmed “artificial blood” wells covered with a collagen membrane; and (3) a 29.7 cm×7.1 cm'0.4 cm Teflon® separator having six rectangular openings like the K&D module. The K&D module was connected to a constant temperature water circulator at 38° C. The cells were covered with an Edicol collagen membrane strip. Nylon organdy strips with ink cell patterns were numbered and randomly treated with […] of the tested chemical in ethanol (ethanol alone as blank control), plus DEET (ca. 10 μg/cm^2) as a positive control. This treated nylon organdy strip was placed on top of the collagen membrane. The upper section of the K & D module with the six cells each containing 5 mosquitoes (5-10 d old, starved for 24 hr before testing) was placed on top of the nylon strip. The doors to the cells were slid open so the mosquitoes could be free to feed on the “artificial blood” via the collagen membrane if they were hungry. The experiments were allowed to run for 3 minutes, and the number of mosquitoes feeding (biting) in each cell was recorded. After each experiment, the nylon and collagen strips were removed. The CPDA+ATP solution was removed and allowed to dry prior to starting the next experiment. The experiments on each chemical and each mosquito species were run three times before the bottom section with circulated water was cleaned prior to use again.

Anopheles stephensi [4] = assay: as above; format: in vivo
Protocol: as §1, §2

Aedes aegypti [5] = assay: Y-tube olfactometer behavioral bioassay (spatial repellency); format: in vivo; conditions: for Number of mosquitoes in each arm: Blank / Number of mosquitoes in each arm: Bottom / Number of mosquitoes in each arm: Repellent: Aedes aegypti females, release rate per chemical (1-60 mg/day), 10 min; for Number of mosquitoes in each arm: Repellent: two replicates pooled; for SAI (Spatial Activity Index): Aedes aegypti, (Nc − Nt)/(Nc + Nt), −1 to 1, zero indicating no response
Protocol: (§3) Aegypti and An. stephensi, and one species of sand fly, P. papatasi. Both the mosquitoes and the sand flies used in the study were from colonies maintained at the Walter Reed Army Institute of Research, Department of Entomology, Silver Spring, Md. This Y-tube bioassay system, equipped with CO2-enriched air (ca. 1 l/min) as an attractant, was made from three clear acrylic tubes (4″ diameter; 12″ length) with symmetrical 120° angles among the three tube arms; and a screen butterfly valve on the top part of the bottom releasing tube. These spatial repellency tests were carried out during 8:00 am-12:00 pm (photophase) time period for Ae. aegypti and 1:00-5:00 pm (shifted scotophase) time period for the species of night-flying mosquitoes and sand fly in a temperature and humidity controlled testing room (23-25° C. and 20-40% RH). Female mosquitoes or sand flies were stored at ˜25-26° C., 50-89% RH, 12:12 hr. (L/D), fed with 10% sucrose solution before testing. The candidate chemical (individual or mixture) dispenser and a blank control were placed in the upper left or right arm of the Y-tube before releasing 25-40, 6 to 10 day-old female mosquitoes (or 3 to 10 day-old sand flies) into the bottom tube via a small hole. After a 30-60 sec acclimation period, the butterfly screen valve (door) on the top of the bottom tube was opened. After 10 min., the valve was closed and the numbers of mosquitoes or sand flies in each arm (including the bottom tube) were counted. In order to minimize the position effect, the same experiment was repeated once with the treatment and blank control arms shifted using a new (clean) Y-tube olfactometer and a new batch of mosquitoes/sand flies. Data from these two replicates were pooled for χ2 goodness of fit test (df=1) between the treatment and blank control.

Anopheles stephensi [6] = assay: as above; format: in vivo; conditions: for Number of mosquitoes in each arm: Repellent / Number of mosquitoes in each arm: Blank / Number of mosquitoes in each arm: Bottom: Anopheles stephensi females, 10 min; for Number of mosquitoes in each arm: Repellent: release rate per chemical (1-60 mg/day; β-Caryophyllene 10 mg/day); for Number of mosquitoes in each arm: Blank / Number of mosquitoes in each arm: Bottom: release rate per chemical (β-Caryophyllene 10 mg/day); for SAI (Spatial Activity Index): Anopheles stephensi, β-Caryophyllene 10 mg/day
Protocol: as §3

Phlebotomus papatasi = assay: as above; format: in vivo; conditions: for SAI (Spatial Activity Index): Phlebotomus papatasi; for Number of mosquitoes in each arm: Repellent: Phlebotomus papatasi (sand fly) females, release rate per chemical (1-35 mg/day); for Number of mosquitoes in each arm: Repellent / Number of mosquitoes in each arm: Blank / Number of mosquitoes in each arm: Bottom: 10 min; for Number of mosquitoes in each arm: Blank / Number of mosquitoes in each arm: Bottom: Phlebotomus papatasi females, release rate per chemical
Protocol: as §3

[7] = test system: male false stable fly Muscina stabulans antenna and female mosquito Aedes (Ochlerotatus) increpitus Dyar antenna; assay: GC-EAD responses of false stable fly and Aedes increpitus to a synthetic mixture; conditions: about 100 ng of each compound, FIG. 5
Protocol: The GC-EAD responses of the male false stable fly Muscina stabulans antenna and the female mosquito Aedes (Ochlerotatus) increpitus Dyar antenna were tested on a synthetic mixture of linalool and two representative sesquiterpene hydrocarbons, β-caryophyllene and α-humulene, and one sesquiterpene oxide, β-caryophyllene oxide, with about 100 ng of each compound in the mixture.
The following procedures were employed to test the EAD response of an insect antenna to a repellent compound. The GC-EAD technique provides an efficient tool for screening behaviorally active repellents. Several synthetic mixtures of potential insect repellent candidates, mostly sesquiterpene hydrocarbons and derivatives, were analyzed in splitless mode using a Varian CP-3800 GC equipped with a polar column (Innowax; 1.0 μm film thickness, 30 m×0.53 mm ID; J & W Scientific), and a 1:1 effluent splitter that allowed simultaneous flame ionization detection (FID) and EAD of the separated volatile compounds. Helium was used as the carrier gas, and the injector temperature was 220° C. The column temperature was 50° C. for 2 min, rising to 240° C. at 10° C./min, then held for 10 min. The outlet for the EAD was held in a humidified air stream flowing at 0.5 liter/min. over an antennal preparation. A glass capillary indifferent electrode filled with Beadle-Ephrussi Ringer, and grounded via a silver wire, was inserted into the severed insect's head with the antennae. A similar recording electrode connected to a high-impedance DC amplifier with automatic baseline drift compensation was placed in contact with the distal end of one antenna (Zhang et al., Chemoecology, 10:69-80 (2000)). The antennal signals were stored and analyzed on a PC equipped with a serial IDAC interface box and the program EAD ver. 2.5 (Syntech, Hilversum, The Netherlands). The compound 1-octen-3-ol (known attractant for many flies and mosquitoes) was included in most of the synthetic mixtures, as a positive control. The results of the experiments are shown in FIGS. 1-10 and described above.

[8] = 10 μg/cm^2, DEET values are the positive control run with the chemical

Compound	GC-EAD antennal activity [1]	topical repellency / feeding deterrence, in words [2]	% of biting (±SE) (N = 3) (Aedes aegypti [3]; 1 μg/cm^2, 3 minutes)	% of biting (±SE) (N = 3) (Aedes aegypti [3]; 5 μg/cm^2)	% of biting (±SE) (N = 3) (Aedes aegypti [3]; [8])	% of biting (±SE) (N = 3) (Aedes aegypti [3]; 50 μg/cm^2) [a %]	% of biting (±SE) (N = 3) (Anopheles stephensi [4]; 1 μg/cm^2, 3 minutes)	% of biting (±SE) (N = 3) (Anopheles stephensi [4]; 5 μg/cm^2) [bc %]	% of biting (±SE) (N = 3) (Anopheles stephensi [4]; [8]) [ab %]	% of biting (±SE) (N = 3) (Anopheles stephensi [4]; 50 μg/cm^2) [a %]	Number of mosquitoes in each arm: Blank (Aedes aegypti [5])	Number of mosquitoes in each arm: Bottom (Aedes aegypti [5])	Number of mosquitoes in each arm: Repellent (Aedes aegypti [5])	SAI (Spatial Activity Index) (Aedes aegypti [5])	Number of mosquitoes in each arm: Repellent (Anopheles stephensi [6])	Number of mosquitoes in each arm: Blank (Anopheles stephensi [6])	Number of mosquitoes in each arm: Bottom (Anopheles stephensi [6])	SAI (Spatial Activity Index) (Anopheles stephensi [6])	SAI (Spatial Activity Index) (Phlebotomus papatasi)	Number of mosquitoes in each arm: Repellent (Phlebotomus papatasi)	also measured
CCN(CC)C(=O)c1cccc(C)c1 [DEET, N,N-diethyl-m-toluamide, reference compound]	does not appear to have elicited antennal activity	significantly inhibited/blocked the feeding (biting) activity																			
C/C1=C\CCC(=O)[C@H]2CC(C)(C)[C@@H]2CC1 [β-Caryophyllene Ketone, β-caryophyllene ketone]		even stronger topical repellency	20 ± 0bc %	13 ± 7ab %	7 ± 7ab %	0 ± 0	47 ± 7cd %	33 ± 7	20 ± 12	0 ± 0	37	20	28	0.14	10	18	32	0.29	0.18	20	Number of mosquitoes in each arm: Blank (Phlebotomus papatasi): 29; Number of mosquitoes in each arm: Bottom (Phlebotomus papatasi): 23
C=C1CC[C@H]2O[C@]2(C)CC[C@@H]2[C@@H]1CC2(C)C [β-Caryophyllene Oxide, β-Caryophyllene oxide]	antennally active	even stronger topical repellency	27 ± 7b %	27 ± 7b %	0 ± 0a %	0 ± 0	27 ± 13abc %	47 ± 7	20 ± 12	0 ± 0	38	26	15	0.43	15	24	23	0.23	0.91	4	Number of mosquitoes in each arm: Blank (Phlebotomus papatasi): 83; Number of mosquitoes in each arm: Bottom (Phlebotomus papatasi): 5; GC-EAD antennal activity [7]: active on at least one of the insects tested
